Source: EP4663640A1 (Shanghai Institute of Materia Medica, Chinese Academy of …, priority 2023, dated 2024)
Read-outs that look alike come from different tables or passages of the source.

Legend:
Assay type in all cases: cell-based
hTRPC5 = target: T1, hTRPC5 (Homo sapiens, UniProt Q9UL62); experiment: TRPC5 inhibitory activity assay (FLIPR calcium fluorescence, Englerin A stimulation)
T1 construct: expressed in transfected cells; host or cells: HEK-293
T1 sequence (Q9UL62 1-973): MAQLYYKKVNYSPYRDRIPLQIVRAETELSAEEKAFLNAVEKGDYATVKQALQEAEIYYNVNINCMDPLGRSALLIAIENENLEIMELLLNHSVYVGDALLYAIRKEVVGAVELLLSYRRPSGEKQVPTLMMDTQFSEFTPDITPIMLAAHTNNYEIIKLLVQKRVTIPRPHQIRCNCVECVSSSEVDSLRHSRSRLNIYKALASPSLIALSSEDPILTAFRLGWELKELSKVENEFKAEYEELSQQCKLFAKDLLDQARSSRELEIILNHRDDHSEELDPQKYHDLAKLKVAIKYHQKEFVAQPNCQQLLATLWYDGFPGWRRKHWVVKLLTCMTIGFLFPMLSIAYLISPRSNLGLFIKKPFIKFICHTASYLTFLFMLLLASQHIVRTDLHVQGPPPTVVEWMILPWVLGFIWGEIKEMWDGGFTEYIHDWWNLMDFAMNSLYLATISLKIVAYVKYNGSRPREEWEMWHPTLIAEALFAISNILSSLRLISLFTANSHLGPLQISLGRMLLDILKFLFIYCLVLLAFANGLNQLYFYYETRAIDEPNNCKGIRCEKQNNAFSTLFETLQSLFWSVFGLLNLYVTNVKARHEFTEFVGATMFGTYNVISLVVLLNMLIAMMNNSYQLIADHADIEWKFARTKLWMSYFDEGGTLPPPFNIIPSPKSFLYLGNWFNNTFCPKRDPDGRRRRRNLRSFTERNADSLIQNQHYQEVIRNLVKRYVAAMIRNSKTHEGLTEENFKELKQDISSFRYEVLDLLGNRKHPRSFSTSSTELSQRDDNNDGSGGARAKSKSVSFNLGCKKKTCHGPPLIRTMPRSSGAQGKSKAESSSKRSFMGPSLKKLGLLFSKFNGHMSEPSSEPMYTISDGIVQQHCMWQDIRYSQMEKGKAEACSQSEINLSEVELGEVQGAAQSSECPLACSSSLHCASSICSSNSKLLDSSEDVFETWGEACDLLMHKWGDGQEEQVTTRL
How it was run: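 HEK-293 cells expressing the human channel, loaded with 4 µM Fluo-4/AM for 60 min at 37 °C, then stimulated with Englerin A (0.3nM final) and read for 600 s.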

hERG channel = target: T2, hERG channel (Homo sapiens, UniProt Q12809); experiment: hERG channel inhibition assay (Qpatch whole-cell recording, CHO cells expressing hERG); details: for IC50: Table 3, highest test concentration 40 µM, read-out: inhibitory activity IC50 hERG
T2 construct: expressed in transfected cells; host or cells: CHO
T2 sequence (Q12809 whole entry): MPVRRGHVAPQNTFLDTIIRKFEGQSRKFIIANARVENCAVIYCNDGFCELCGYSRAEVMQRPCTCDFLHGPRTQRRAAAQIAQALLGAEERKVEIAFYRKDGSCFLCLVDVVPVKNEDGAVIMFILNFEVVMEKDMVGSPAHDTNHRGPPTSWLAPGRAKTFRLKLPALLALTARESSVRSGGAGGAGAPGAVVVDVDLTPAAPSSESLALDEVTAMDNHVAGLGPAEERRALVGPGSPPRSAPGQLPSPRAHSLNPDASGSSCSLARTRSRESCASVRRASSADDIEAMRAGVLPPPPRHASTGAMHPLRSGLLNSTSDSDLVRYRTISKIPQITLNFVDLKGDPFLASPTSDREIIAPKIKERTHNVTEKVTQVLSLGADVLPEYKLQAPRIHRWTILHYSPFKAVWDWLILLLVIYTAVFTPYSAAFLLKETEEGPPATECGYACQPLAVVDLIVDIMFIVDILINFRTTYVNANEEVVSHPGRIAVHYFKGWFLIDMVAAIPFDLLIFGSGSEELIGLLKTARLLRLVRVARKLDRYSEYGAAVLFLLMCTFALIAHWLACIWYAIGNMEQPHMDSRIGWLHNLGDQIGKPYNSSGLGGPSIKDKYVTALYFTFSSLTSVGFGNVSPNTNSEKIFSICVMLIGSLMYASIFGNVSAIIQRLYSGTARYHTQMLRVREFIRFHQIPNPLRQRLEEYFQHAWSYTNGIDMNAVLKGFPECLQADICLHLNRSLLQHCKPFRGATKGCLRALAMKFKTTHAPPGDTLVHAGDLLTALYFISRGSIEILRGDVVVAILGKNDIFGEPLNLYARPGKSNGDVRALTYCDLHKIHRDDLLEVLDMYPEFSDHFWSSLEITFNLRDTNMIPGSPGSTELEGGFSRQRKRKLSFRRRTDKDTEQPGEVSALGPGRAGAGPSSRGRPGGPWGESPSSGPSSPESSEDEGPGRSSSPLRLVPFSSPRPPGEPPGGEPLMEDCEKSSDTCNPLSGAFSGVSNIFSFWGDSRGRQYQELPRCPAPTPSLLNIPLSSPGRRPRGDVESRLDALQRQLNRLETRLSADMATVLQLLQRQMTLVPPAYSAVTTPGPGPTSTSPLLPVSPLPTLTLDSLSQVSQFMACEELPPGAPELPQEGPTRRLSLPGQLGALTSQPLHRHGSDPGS
Description: (§1) CHO cells expressing hERG protein were cultured in 175cm^2 culture flasks. When the cell density grew to 60-80%, the culture medium was removed, and the cells were washed with 7mL PBS, and then 3mL Detachin was added for digestion. After digestion was complete, 7mL culture medium was added for neutralization, and then centrifuged, the supernatant was aspirated, and 5mL culture medium was added for resuspending to ensure that the cell density was 2-5×10^6/mL.
(§2) The single-cell high-impedance sealing and whole-cell pattern formation process were all automatically completed by the Qpatch instrument. After obtaining the whole-cell recording mode, the cell was clamped at -80 mV. […] This voltage stimulus was applied every 15 seconds. After recording for 2 minutes, the extracellular solution was recorded for 2 minutes, and then the drug administration process began. The compound concentration started from the lowest test concentration, and each test concentration was given for 2 minutes. After all concentrations were given continuously, the positive control compound 10 µM Cisapride was given. At least 3 cells (n≥3) were tested for each concentration.
(§3) The stock solution of compound was diluted with extracellular solution, 5 µL of 20 mM compound stock solution was added to 2495 µL of extracellular solution, 500 times diluted to 40 µM, and then 3 times serial dilution was performed in the extracellular solution containing 0.2% DMSO to obtain the final concentration to be tested.
(§4) (5) Data analysis: The experimental data were analyzed by XLFit software.

[1] = target: T3, hERG channel (relative to TRPC5) (Homo sapiens, UniProt Q12809); experiment: as above; details: human, CHO cells expressing hERG; ratio of IC50 values
T3 construct: expressed in transfected cells; host or cells: CHO
T3 sequence (Q12809 whole entry): as above
Description: as §1, §2, §3, §4

[2] = test system: primary cultured mouse hepatic stellate cells (HSC); experiment: Inhibition of TGF-β-induced hepatic stellate cell activation (α-SMA labeling); details: 1 µM compound, TGF-β 10 ng/mL, 24 hours; TGF-β alone 11.76 ± 1.47%, unstimulated 0.3 ± 0.04%; Mean ± SEM
Description: After primary cultured mouse hepatic stellate cells (HSC) were plated on 96-well black-bottom permeable plates for 24 hours, they were pre-incubated with 1 µM compound E21 and solvent control 0.1% DMSO for 1 hour, and then TGF-β was added to a final concentration of 10 ng/mL, and continued to be cultured in a CO2 incubator for 24 hours. Then the culture medium was aspirated, the plates were washed with 37 °C PBS solution for 3 times, and 4% paraformaldehyde solution was added for 30 minutes for fixation. Then 0.15% Triton X-100 solution was added for permeabilization for 10 minutes; then 5% BSA solution was added for blocking at room temperature for 1 hour; then anti-α-SMA solution (1:300) prepared with 5% BSA solution was added and incubated at 4 °C overnight; the next day, Alexa-488 anti-rabbit fluorescent secondary antibody (1:1000) prepared with 5% BSA solution was added and incubated at room temperature for 1 hour in the dark. […] After the end, the cells were washed 3 times with PBS solution and fluorescence photography was performed. The FITC filter was used to shoot green fluorescence, and the DAPI filter was used to shoot blue fluorescence. ImageJ software was used to count the total number of cells in each field of view, and the number of α-SMA positive cells was manually counted. […]

[3] = Table 1, TRPC5 channels, HEK-293 cells expressing hTRPC5, read-out: FLIPR IC50
[4] = Table 3, read-out: inhibitory activity IC50 TRPC5

SMILES	IC50 (hTRPC5; [3])	IC50 (hTRPC5; [4])	IC50 (hERG channel)	selectivity ratio at 2 min [1]	proportion of α-SMA-positive cells [2]	IC50 (hTRPC5)	selectivity ratio (hERG channel; ratio of IC50 values, read-out: relative selectivity hERG/ TRPC5)
Cn1c(=O)n(CCCO)c(=O)c2c1nc(C1(F)CCC(C(F)(F)F)CC1)n2Cc1ccc(Cl)cc1 (stereo not shown) [Example E21, 7-(4-chlorobenzyl)-8-(1-fluoro-4-(trifluoromethyl)cyclohexyl)-1-(3-hydroxypropyl)-3-methyl-3,7-dihydro-1H-purine-2,6-dione]	5.1 nM	5.1 nM	> 40000 nM	> 7840	5.20 ± 0.74%	–	–
COC1CCC(F)(c2nc3c(c(=O)n(CCCO)c(=O)n3C)n2Cc2ccc(Cl)cc2)CC1 (stereo not shown) [Example E32, 7-(4-chlorobenzyl)-8-(1-fluoro-4-methoxycyclohexyl)-1-(3-hydroxypropyl)-3-methyl-3,7-dihydro-1H-purine-2,6-dione]	10.2 nM	10.2 nM	7520 nM	737	–	–	–
Cn1c(=O)n(CCCO)c(=O)c2c1nc(C1(F)CCC(C(F)(F)F)CC1)n2Cc1ccc(F)c(F)c1 (stereo not shown) [Example E52]	–	–	> 40000 nM	–	–	1.3 nM	> 30800
Cn1c(=O)n(CCCO)c(=O)c2c1nc(C1(F)CCC(F)(F)CC1)n2Cc1ccc(F)c(Cl)c1 [Example E68, 7-(3-chloro-4-fluorobenzyl)-1-(3-hydroxypropyl)-3-methyl-8-(1,4,4-trifluorocyclohexyl)-3,7-dihydro-1H-purine-2,6-dione]	0.58 nM	0.58 nM	> 40000 nM	> 69000	–	–	–
